Test results from publication PMC12604922, “Synthesis, biological evaluation, and theoretical studies of 2-amino-3-cyano-4- (L-phenylalaninyl)quinolines: anticancer potential and EGFR inhibition” (Turkish Journal of Chemistry, 2025).
Read-outs that look alike come from different tables or passages of the source.

Legend:
[1] = tested on: A549 (human lung adenocarcinoma) cells; test: MTT cytotoxicity assay (24 h), A549; settings: A549, 24 h, read-out: IC50 (μM) A549, A549 cells, 24 h MTT
Protocol: (§1) The synthesized compounds were evaluated for anticancer activity against two cell lines: human lung adenocarcinoma (A549) and human breast adenocarcinoma (MCF-7). To assess selectivity, the compounds were also tested on healthy mouse embryonic fibroblast (NIH3T3) cells. The culture medium was supplemented with fetal calf serum, 100 IU/mL penicillin, and 100 μg/mL streptomycin. […] The cytotoxic effects of the compounds were measured using the MTT assay, as described previously [26–28].

[2] = tested on: NIH3T3 (healthy mouse embryonic fibroblast) cells; test: MTT cytotoxicity assay (24 h), NIH3T3; settings: for IC50: Mus musculus, NIH3T3, 24 h, read-out: IC50 (μM) NIH3T3; for Toxicity in NIH3T3 cell line: at concentrations effective against the A549 and MCF-7 cell lines
Protocol: as §1

[3] = tested on: MCF-7 (human breast adenocarcinoma) cells; test: MTT cytotoxicity assay (24 h), MCF-7
Protocol: as §1

wild-type EGFR = target: T1, wild-type EGFR (Homo sapiens, UniProt P00533); test: EGFR inhibition assay (luminescence kinase kit, Kinase-Glo Max); type: biochemical; settings: recombinant wild-type EGFR, 30 °C, 40 min
T1 construct: purchased BPS Bioscience 40321

[4] = Homo sapiens, MCF7, 24 h, read-out: IC50 (μM) MCF7, MCF-7 cells, 24 h MTT
[5] = read-out: IC50 (μM) MCF7, MCF-7 cells, 24 h MTT

T1 sequence (P00533 25-1210): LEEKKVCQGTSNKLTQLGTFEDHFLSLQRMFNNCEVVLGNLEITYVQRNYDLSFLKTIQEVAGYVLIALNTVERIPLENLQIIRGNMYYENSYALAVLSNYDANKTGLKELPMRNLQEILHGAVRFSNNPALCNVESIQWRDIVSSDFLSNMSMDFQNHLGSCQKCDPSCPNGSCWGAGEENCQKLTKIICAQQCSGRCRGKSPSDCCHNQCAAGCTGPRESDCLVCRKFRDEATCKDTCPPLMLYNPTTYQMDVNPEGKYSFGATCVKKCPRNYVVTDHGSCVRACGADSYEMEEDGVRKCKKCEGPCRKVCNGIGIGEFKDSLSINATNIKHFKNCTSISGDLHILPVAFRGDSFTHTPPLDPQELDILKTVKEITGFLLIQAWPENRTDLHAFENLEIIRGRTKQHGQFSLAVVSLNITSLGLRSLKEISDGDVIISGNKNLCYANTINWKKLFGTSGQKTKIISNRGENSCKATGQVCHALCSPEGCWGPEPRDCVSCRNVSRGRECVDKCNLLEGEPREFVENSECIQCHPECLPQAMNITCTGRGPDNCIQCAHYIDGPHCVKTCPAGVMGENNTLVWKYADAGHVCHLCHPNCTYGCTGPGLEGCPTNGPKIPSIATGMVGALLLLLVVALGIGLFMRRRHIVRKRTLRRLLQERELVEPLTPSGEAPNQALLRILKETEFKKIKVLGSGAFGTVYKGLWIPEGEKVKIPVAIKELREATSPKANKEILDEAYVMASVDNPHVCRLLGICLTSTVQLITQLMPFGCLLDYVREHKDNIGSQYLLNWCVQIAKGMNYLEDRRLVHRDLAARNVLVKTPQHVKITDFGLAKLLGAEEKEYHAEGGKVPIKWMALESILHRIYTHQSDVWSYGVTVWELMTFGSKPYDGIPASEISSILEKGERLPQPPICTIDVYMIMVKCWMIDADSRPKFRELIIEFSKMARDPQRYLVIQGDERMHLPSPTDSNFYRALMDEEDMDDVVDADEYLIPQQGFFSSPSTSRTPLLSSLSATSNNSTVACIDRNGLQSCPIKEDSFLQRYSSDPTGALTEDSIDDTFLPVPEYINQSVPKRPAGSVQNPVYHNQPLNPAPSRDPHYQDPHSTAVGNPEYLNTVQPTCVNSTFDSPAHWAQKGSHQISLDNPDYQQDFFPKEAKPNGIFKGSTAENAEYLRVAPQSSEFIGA

Row | SMILES | IC50 [1] [µM] | IC50 [2] [µM] | IC50 [3, 4] [µM] | Toxicity in NIH3T3 cell line [2] | IC50 (wild-type EGFR) [µM] | IC50 [3, 5] [µM]
1 | COC(=O)[C@H](Cc1ccccc1)Nc1c(C#N)c(N)nc2ccc(Br)cc12 [Compound 4f, methyl (2-amino-6-bromo-3-cyanoquinolin-4-yl)-L-phenylalaninate] | > 100 | > 100 | > 100 |  |  | 
2 | COC(=O)[C@H](Cc1ccccc1)Nc1c(C#N)c(N)nc2ccc(Cl)cc12 [Compound 4e, methyl (2-amino-6-chloro-3-cyanoquinolin-4-yl)-L-phenylalaninate] |  | 56.3 ± 2.06 | < 10 | nontoxic | 0.058 ± 0.0026 | 6.11 ± 0.272
3 | COc1cccc2c1C(=O)c1c(O)c3c(c(O)c1C2=O)C[C@@](O)(C(=O)CO)C[C@@H]3O[C@H]1C[C@H](N)[C@H](O)[C@H](C)O1 [Doxorubicin, reference compound] | 11 ± 0.247 | > 100 |  |  |  | 
4 | COC(=O)[C@H](Cc1ccccc1)Nc1c(C#N)c(N)nc2ccccc12 [Compound 4a, methyl (2-amino-3-cyanoquinolin-4-yl)-L-phenylalaninate] | > 100 | > 100 | > 100 |  |  | 
5 | COC(=O)[C@H](Cc1ccccc1)Nc1c(C#N)c(N)nc2cc(Cl)ccc12 [Compound 4d, methyl (2-amino-7-chloro-3-cyanoquinolin-4-yl)-L-phenylalaninate] |  | > 100 | < 10 | nontoxic | 0.069 ± 0.0027 | 7.71 ± 0.217
6 | COC(=O)[C@H](Cc1ccccc1)Nc1c(C#N)c(N)nc2cc(F)ccc12 [Compound 4c, methyl (2-amino-3-cyano-7-fluoroquinolin-4-yl)-L-phenylalaninate] | 23.6 ± 0.523 | 30.5 ± 1.32 | 27.2 ± 1.01 |  |  | 
7 | COC(=O)[C@H](Cc1ccccc1)Nc1c(C#N)c(N)nc2cc(C)ccc12 [Compound 4b, methyl (2-amino-3-cyano-7-methylquinolin-4-yl)-L-phenylalaninate] | > 100 | > 100 | > 100 |  |  | 
